Results published in patent US20210055311A1, “SCREENING METHOD FOR ESTROGENIC AND ANTI-ESTROGENIC ACTIVITY” (BUNDESINSTITUT FÜR RISIKOBEWERTUNG, priority 2018, published 2021).

Columns and labels:
[1] = test system: MCF7/vBOS cells (DSM ACC3321); experiment: Prevention of fulvestrant-induced discontinuous adherens junctions by estrogenic compounds; format: cell-based, human; details: for prevention of the formation of discontinuous adherens junctions: along with 10^−8 M fulvestrant; for minimal concentration preventing the fulvestrant-induced phenotype: co-treatment with 10^−8 M fulvestrant, 48 h
Procedure: Briefly, MCF7/vBOS cells were grown on glass coverslips in multi-well tissue culture plates (TPP) for 24 h and then treated for 48 h with 0.1% EtOH (solvent control), the anti-estrogen fulvestrant in the fixed concentration of 10^−8 M and different concentrations (10^−10 M, 10^−9 M, 10^−8 M, 10^−7 M) of the ERα agonist 17β-estradiol. The solvent control was used as a positive control and fulvestrant at a concentration of 10^−8 M without 17β-estradiol addition was used as a negative control. Sample preparation and immunofluorescence microscopy was performed as described in example 2 above. After 48 hours the fraction of cells displaying discontinuous adherens junctions was determined by CellProfiler/CellProfer-analyst software (see example 7).
The same protocols as in example 2 were used with the following deviations: • Bisphenol A: Cells were grown for 24 h and then treated for 48 h with 10^−8 M fulvestrant and 10^−5 or 10^−4 M bisphenol A, respectively, diluted in DSMO. • Nonylphenol: Cells were grown for 24 h and then treated for 48 h with 10^−8 M fulvestrant and 10^−5 or 10^−4 nonylphenol, respectively, diluted in ethanol.
Briefly, cell culture, sample preparation and immunofluorescence microscopy was performed as described in example 2 (ERα signalling inhibition (fulvestrant titration)) and example 5 (ERα signalling restoration (fulvestrant at 10^−8 M in combination with 17β-estradiol titration))..
Subsequently, quantitative image analysis was performed using a pipeline that builds on the CellProfiler software (Carpenter et al., Genome Biol., 2006; 7(10):R100.) for segmentation and extraction of cellular parameters, and on the CellProfiler Analyst software (Jones et al., BMC Bioinformatics, 2008 Nov. 15; 9:482) for parameter-based classification of cells. In the segmentation process, primary objects (nuclei) were identified from DAPI staining by global thresholding using Otsu's method. Next, primary objects served as seeding points for identification of secondary objects (cell membranes) at a defined distance. Finally, tertiary objects (cytoplasm) were defined by subtracting primary from secondary objects. The resulting object masks were then applied to extract cellular parameters including area, shape, distribution and variation of pixel intensities, and mean intensity from the corresponding greyscale images using the CellProfiler MeasureObjectSizeShape, MeasureObjectRadialDistribution, MeasureTexture, and MeasureObjectIntensity modules, and stored in a database file. This database file was then imported into the Classifier module of the CellProfiler Analyst software for supervised training with a subset of cells, and subsequent parameter-based automatic classification of all cells within the entire image dataset. For immunofluorescence images, supervised training based on cell membrane features (E-Cad channel) was conducted with two classes representing continuous adherens junctions (Continuous AJs') and discontinuous adherens junctions (Discontinuous AJs′) (about 30 cells for each class). After the supervised training process had been completed, the entire image dataset from a specific experiment was evaluated and all identified cells were automatically classified into corresponding classes according to their individual parameters. The fraction of cells representing ‘Continuous AJs’ and ‘Discontinuous AJs’ classes were finally graphically represented in stacked bar plots.

[2] = test system: MCF7/vBOS cells (DSM ACC3321); experiment: Formation of discontinuous basolateral adherens junctions upon anti-estrogen exposure (E-Cadherin immunofluorescence); format: cell-based, human; details: for Concentration (M) suitable for manifestation of the discontinuous basolateral adherens junctions phenotype / Culture time (h) typically required for formation of discontinuous basolateral adherens junctions: cell as deposited under DSM ACC3321; for formation of discontinuous adherens junctions (E-Cadherin staining): concentration and incubation time per compound as in FIGS. 1-3
From the text: The time usually required for formation of discontinuous basolateral adherens junctions will depend on the estrogen receptor binding affinity and concentration of the anti-estrogen used on the one hand and the cell used on the other hand, but a person skilled in the art will be readily capable of determining the appropriate time spans and concentration for a given anti-estrogen and cell. For example, if the cell is a cell as deposited under accession number DSM ACC3321, suitable concentration ranges and culture times for manifestation of the discontinuous basolateral adherens junctions phenotype in presence of fulvestrant, tamoxifen, ZK 164015, MPP dihydrochloride, and (Z)-4-hydroxytamoxifen, without being limited thereto, are:
MCF7/vBOS cells were grown on glass coverslips in multi-well tissue culture plates (TPP) for 24 h and then treated for at least 48 h with 0.1% EtOH (solvent control) and different concentrations (10^−11 M, 10^−10 M, 10^−9 M, 10^−8 M, 10^−7 M) of the ERα antagonist fulvestrant (Sigma-Aldrich, CAS-No. 129453-61-8). During experiments, medium was exchanged on a daily basis. All experiments were performed at 37° C. with 5% CO2 in reduced-serum medium (phenol red-free DMEM (Gibco), 5% FBS (Biochrom, S 0615, LOT1353 W), 1% glutamine, 100 μg/ml streptomycin/100 U/ml penicillin (Biochrom)).
After treatment with fulvestrant the adherens junction morphology of the cells was analysed by means of immunofluorescence microscopy. Briefly, cells were fixed with 3.7% formaldehyde in PBS for 15 min, permeabilized with 0.2% Triton X-100 in PBS for 30 min, and blocked with 5% FBS in PBS for 60 min (all steps at room temperature). Incubation with primary and secondary antibodies in PBS containing 1.5% BSA was carried out over night at 4° C. and for 1 h at room temperature, respectively. The following antibodies/dyes were used: anti-E-Cadherin (H-108, Santa Cruz); DAPI (Roche); secondary antibody conjugated to Cy3 (alternatives are, e.g.: Cy2, Alexa Fluor 488/555/647; all Invitrogen). The samples were then mounted in Dako fluorescence mounting medium (Dako) or VectaShield (Vector Labs). All images were acquired with an Axio Observer.Z1 widefield microscope equipped with an Apotome.2 device for optical sectioning using structured illumination (Zeiss). After 48 hours the fraction of cells displaying discontinuous adherens junctions was determined by CellProfiler/CellProfer-analyst software (see example 7).
In view of the results obtained with MCF7/vBOS cells upon exposure to fulvestrant the inventors speculated that a similar phenotype might be obtainable with other ERα antagonist as well. To test this hypothesis, the inventors used the ERα antagonists tamoxifen (Sigma-Aldrich, CAS-No. 10540-29-1), MPP dihydrochloride (Sigma-Aldrich, CAS-No. 911295-24-4), ZK164015 (Tocris, CAS-No. 177583-70-9), and (Z)-4-hydroxytamoxifen (Tocris, CAS-No. 68047-06-3). The same protocols as in example 2 were used with the following deviations: • Tamoxifen: Cells were grown for 24 h and then treated for 144 h with 10^−8 and 10^−6 M tamoxifen. • MPP dihydrochloride: Cells were grown for 24 h and then treated for 144 h with 10^−8 and 10^−6 M MPP dihydrochloride. • ZK164015: Cells were grown for 24 h and then treated for 48 h with 10^−9 and 10^−7 M ZK164015. • (Z)-4-hydroxytamoxifen: Cells were grown for 24 h and then treated for 72 h with 10^−9 and 10^−8 M (Z)-4-hydroxytamoxifen.
Subsequently, quantitative image analysis was performed using a pipeline that builds on the CellProfiler software (Carpenter et al., Genome Biol., 2006; 7(10):R100.) for segmentation and extraction of cellular parameters, and on the CellProfiler Analyst software (Jones et al., BMC Bioinformatics, 2008 Nov. 15; 9:482) for parameter-based classification of cells. In the segmentation process, primary objects (nuclei) were identified from DAPI staining by global thresholding using Otsu's method. […]

| Compound | fraction of cells with continuous adherens junctions (CellProfiler quantification) ([1]; 10^−8 M fulvestrant plus different concentrations, 48 hours) | prevention of the formation of discontinuous adherens junctions [1] | minimal concentration preventing the fulvestrant-induced phenotype [1] | Concentration (M) suitable for manifestation of the discontinuous basolateral adherens junctions phenotype [2] | Culture time (h) typically required for formation of discontinuous basolateral adherens junctions [2] [h] | formation of discontinuous adherens junctions (E-Cadherin staining) [2] |
| --- | --- | --- | --- | --- | --- | --- |
| C[C@]12CC[C@@H]3c4ccc(O)cc4CC[C@H]3[C@@H]1CC[C@@H]2O [17β-estradiol] | restores the fraction of cells with continuous adherens junctions | prevention of the formation of discontinuous adherens junctions | 10^−9 M |  |  |  |
| CC/C(=C(\c1ccc(O)cc1)c1ccc(OCCN(C)C)cc1)c1ccccc1 [(Z)-4-hydroxytamoxifen] |  |  |  | 10^−9-10^−7 M | 48 to 144 | Discontinuous adherens junctions became apparent |
| Cc1c(-c2ccc(O)cc2)nn(-c2ccc(O)cc2)c1-c1ccc(OCCN2CCCCC2)cc1.Cl.Cl [MPP dihydrochloride] |  |  |  | 10^−6-10^−5 M | 30 to 168 | Discontinuous adherens junctions became apparent |
| CC/C(=C(\c1ccccc1)c1ccc(OCCN(C)C)cc1)c1ccccc1 [Tamoxifen] |  |  |  | 10^−6-10^−5 M | 30 to 168 | Discontinuous adherens junctions became apparent |
| CCCCCS(=O)(=O)CCCCCCCCCCn1c(-c2ccc(O)cc2)c(C)c2cc(O)ccc21 [ZK 164015] |  |  |  | 10^−7-10^−5 M | 24 to 96 | Discontinuous adherens junctions became apparent |
| CC(C)(c1ccc(O)cc1)c1ccc(O)cc1 [bisphenol A] |  | prevention of the formation of discontinuous adherens junctions | 10^−5 M |  |  |  |
| nonylphenol |  | prevention of the formation of discontinuous adherens junctions | 10^−5 M |  |  |  |
